Earlier results, collected in patent US12156858B2, “Pharmaceutical compositions comprising levodopa, a dopamine decarboxylase inhibitor and a COMT inhibitor and method of administration thereof” (InTrance Medical Systems Inc., priority 2014, dated 2024).

Conditions: intake of levodopa alone

share metabolized to dopamine before levodopa reaches the brain: more than 90%
Structure (SMILES): N[C@@H](Cc1ccc(O)c(O)c1)C(=O)O [Levodopa, (−)-L-α-amino-β-(3,4-dihydroxybenzene) propanoic acid]
